Results as given in patent US7601717B2, “Pterin analogs” (BioMarin Pharmaceutical Inc., priority 2008, dated 2009).

What was measured:
Format in all cases: in vitro ADME
Details in all cases: over a 60 minute period, compound remaining
[1] = Stability in human plasma
Protocol: (§1) The stability of various compounds as disclosed herein was tested in human and rat and in simulated gastric fluid. Each compound was tested over an hour period for concentration of the compound remaining at each time point. The results are shown in FIGS. 3 (human plasma stability), 4 (rat plasma stability), and 5 (simulated gastric fluid stability) for the compounds of Example 2, 3, 4, and 20.

Stability in rat plasma = assay: Stability in rat plasma
Protocol: as §1

[2] = Stability in simulated gastric fluid
Protocol: as §1

stability in human plasma [1]: high level of stability
stability in rat plasma (Stability in rat plasma): high level of stability
stability in simulated gastric fluid [2]: high level of stability
Compound: CCCC(=O)O[C@@H]([C@H](C)OC(=O)CCC)[C@H]1CNc2nc(N)[nH]c(=O)c2N1C(=O)CCC [Example 4, Butyric acid 1-(2-amino-5-butyryl-4-oxo-3,4,5,6,7,8-hexahydro-pteridin-6-yl)-2-butyryloxy-propyl ester]
